According to patent US9856279B2 (AGIOS PHARMACEUTICALS, INC, priority 2011, dated 2018):

Columns and labels:
[1] = molecular target: IDH1 R132H (Homo sapiens, UniProt O75874, R132H); assay: Assay for IDH1 R132H inhibitors (NADPH/aKG, resazurin detection); assay type: biochemical; conditions: enzyme assay of Example 12; read-out: IDH1R132H IC50
Summary of the method: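 Read-out is resorufin fluorescence (Ex544/Em590) 5 min after adding a 30 μM resazurin detection mix. Before that, mutant enzyme (0.2 μg/ml in its mix) ran 50 min at room temperature with compound, 8 uM NADPH and 2 mM aKG (mix levels) in Tris pH 7.5 with NaCl, MgCl2, BSA.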

[2] = test system: U87MG cells; assay: Cellular assay for IDH1m inhibitors: inhibition of 2-HG production (LC-MS, 48 hours) in U87MG cells; assay type: cell-based; conditions: Homo sapiens, U-87 MG, inhibition of 2-HG production, U87R132H cells; read-out: U87R132H IC50
Summary of the method: (§1)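 Each cell line is plated at 5000 cells/well in DMEM with 10% FBS and left overnight at 37 °C. Test compounds are then added for 48 h, after which 2-HG in the medium is determined by LC-MS; IC50 reflects 50% reduction compared with control.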

[3] = test system: HT1080 cells; assay: Cellular assay for IDH1m inhibitors: inhibition of 2-HG production (LC-MS, 48 hours) in HT1080 cells; assay type: cell-based; conditions: Homo sapiens, HT-1080; inhibition of 2-HG production, HT1080 cells; read-out: HT1080 IC50
Summary of the method: as §1

Chain of IDH1 R132H (O75874 whole entry R132H): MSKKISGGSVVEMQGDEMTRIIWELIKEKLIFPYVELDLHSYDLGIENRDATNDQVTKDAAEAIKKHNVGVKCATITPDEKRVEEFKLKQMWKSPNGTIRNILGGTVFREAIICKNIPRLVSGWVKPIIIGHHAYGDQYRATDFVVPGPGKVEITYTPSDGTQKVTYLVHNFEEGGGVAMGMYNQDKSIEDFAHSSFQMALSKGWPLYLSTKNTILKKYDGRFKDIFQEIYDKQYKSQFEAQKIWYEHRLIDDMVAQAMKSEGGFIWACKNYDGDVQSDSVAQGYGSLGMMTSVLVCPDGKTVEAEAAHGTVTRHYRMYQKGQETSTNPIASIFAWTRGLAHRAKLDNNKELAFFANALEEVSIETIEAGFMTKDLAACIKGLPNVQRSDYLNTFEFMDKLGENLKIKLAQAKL

IC50 [1] | IC50 [2] | IC50 [3] | SMILES
< 0.5 µM | 0.5 to 1 µM | 1 to 10 µM | COCCC(=O)N1CCN(c2nc(C3CC3)c(OC(C)c3ccncc3)cc2C#N)C[C@H]1C (stereo partly drawn) [Compound 388, 6-cyclopropyl-2-((R)-4-(3-methoxypropanoyl)-3-methylpiperazin-1-yl)-5-(1-(pyridin-4-yl)ethoxy)nicotinonitrile]
< 0.5 µM | 1 to 10 µM | 1 to 10 µM | COCCC(=O)N1CCN(c2nc(C3CC3)c(OCc3cccc(OC)c3)cc2C#N)C[C@H]1C [Compound 280, (R)-6-cyclopropyl-5-(3-methoxybenzyloxy)-2-(4-(3-methoxypropanoyl)-3-methylpiperazin-1-yl)nicotinonitrile]
< 0.5 µM | 0.5 to 1 µM | 0.5 to 1 µM | COCCC(=O)N1CCN(c2nc(C3CC3)c(-c3ccc4[nH]ncc4c3)cc2C#N)C[C@H]1C [Compound 295, (R)-6-cyclopropyl-5-(1H-indazol-5-yl)-2-(4-(3-methoxypropanoyl)-3-methylpiperazin-1-yl)nicotinonitrile]
< 0.5 µM | < 0.5 µM | < 0.5 µM | C=Cc1cnc2c(-c3cc(C#N)c(N4CCN(C(=O)CCOC)[C@H](C(C)C)C4)nc3C3CC3)cccc2n1 [Compound 605, (R)-6-cyclopropyl-2-(3-isopropyl-4-(3-methoxypropanoyl)piperazin-1-yl)-5-(2-vinylquinoxalin-5-yl)nicotinonitrile]
< 0.5 µM | < 0.5 µM | 0.5 to 1 µM | COCCC(=O)N1CCN(c2nc(C3CC3)c(-c3cccc(CNS(C)(=O)=O)c3)c(C)c2C#N)C[C@H]1C [Compound 335, (R)—N-(3-{5-cyano-2-cyclopropyl-6-[4-(3-methoxy-propionyl)-3-methyl-piperazin-1-yl]-4-methyl-pyridin-3-yl}-benzyl)-methanesulfonamide]
< 0.5 µM | 1 to 10 µM | 0.5 to 1 µM | COCCC(=O)N1CCN(c2nc(C3CC3)c(OCc3cccc([N+](=O)[O-])c3)cc2C#N)C[C@H]1C [Compound 312, (R)-6-cyclopropyl-2-(4-(3-methoxypropanoyl)-3-methylpiperazin-1-yl)-5-(3-nitrobenzyloxy)nicotinonitrile]
< 0.5 µM | < 0.5 µM | < 0.5 µM | C=Cc1cnnc(-c2c(C3CC3)nc(N3CCN(C(=O)/C=C/CCO)[C@H](C4CC4)C3)c(C#N)c2C)c1 [Compound 769, (R,E)-6-cyclopropyl-2-(3-cyclopropyl-4-(5-hydroxypent-2-enoyl)piperazin-1-yl)-4-methyl-5-(5-vinylpyridazin-3-yl)nicotinonitrile]
< 0.5 µM | < 0.5 µM | < 0.5 µM | C=Cc1cc(-c2cc(C#N)c(N3CCN(C(=O)CCC4CCCO4)[C@H](C4CC4)C3)nc2C2CC2)ccn1 (stereo partly drawn) [Compound 800, 2-cyclopropyl-6-((3R)-3-cyclopropyl-4-(3-(tetrahydrofuran-2-yl)propanoyl)piperazin-1-yl)-2′-vinyl-3,4′-bipyridine-5-carbonitrile]
< 0.5 µM | 0.5 to 1 µM | < 0.5 µM | COCCC(=O)N1CCN(c2nc(C3CC3)c(OCc3cccc(NC(=O)CBr)c3)cc2C#N)C[C@H]1C [Compound 382, (R)-2-bromo-N-(3-((5-cyano-2-cyclopropyl-6-(4-(3-methoxypropanoyl)-3-methylpiperazin-1-yl)pyridin-3-yloxy)methyl)phenyl)acetamide]
< 0.5 µM | < 0.5 µM | < 0.5 µM | C=Cc1cc(Oc2cc(C#N)c(N3CCN(C(=O)CCO)[C@H](C4CC4)C3)nc2C2CC2)ccn1 [Compound 692, (R)-6-cyclopropyl-2-(3-cyclopropyl-4-(3-hydroxypropanoyl)piperazin-1-yl)-5-(2-vinylpyridin-4-yloxy)nicotinonitrile]
< 0.5 µM | < 0.5 µM | < 0.5 µM | C=Cc1cc(-c2cc(C#N)c(N3CCN(C(=O)CCCO)[C@H](C4CC4)C3)nc2C2CC2)ccn1 [Compound 753, (R)-2-cyclopropyl-6-(3-cyclopropyl-4-(4-hydroxybutanoyl)piperazin-1-yl)-2′-vinyl-3,4′-bipyridine-5-carbonitrile]
< 0.5 µM | < 0.5 µM | < 0.5 µM | N#Cc1cc(-c2cccc3cnccc23)c(C2CC2)nc1N1CCN(C(=O)CC(F)(F)F)[C@H](C2CC2)C1 [Compound 387, (R)-6-cyclopropyl-2-(3-cyclopropyl-4-(3,3,3-trifluoropropanoyl)piperazin-1-yl)-5-(isoquinolin-5-yl)nicotinonitrile]
< 0.5 µM | < 0.5 µM | < 0.5 µM | C=Cc1ccc2c(-c3cc(C#N)c(N4CCN(C(=O)CC(F)(F)F)[C@H](C5CC5)C4)nc3C3CC3)cccc2n1 [Compound 551, (R)-6-cyclopropyl-2-(3-cyclopropyl-4-(3,3,3-trifluoropropanoyl)piperazin-1-yl)-5-(2-vinylquinolin-5-yl)nicotinonitrile]
< 0.5 µM | < 0.5 µM | < 0.5 µM | C=Cc1cc(-c2cc(C#N)c(N3CCN(C(=O)C[C@@H](C)O)[C@H](C4CC4)C3)nc2C2CC2)ccn1 [Compound 585, 2-cyclopropyl-6-((R)-3-cyclopropyl-4-((R)-3-hydroxybutanoyl)piperazin-1-yl)-2′-vinyl-3,4′-bipyridine-5-carbonitrile]
< 0.5 µM | 1 to 10 µM | 1 to 10 µM | COCCC(=O)N1CCN(c2nc(C3CC3)c(OCc3ccc(CO)cc3)cc2C#N)C[C@H]1C [Compound 301, (R)-6-cyclopropyl-5-(4-(hydroxymethyl)benzyloxy)-2-(4-(3-methoxypropanoyl)-3-methylpiperazin-1-yl)nicotinonitrile]
< 0.5 µM | 1 to 10 µM | 0.5 to 1 µM | COCCC(=O)N1CCN(c2nc(C3CC3)c(-c3ccc(OC(F)(F)F)cc3)c(C)c2C#N)C[C@H]1C [Compound 263, (R)-6-cyclopropyl-2-(4-(3-methoxypropanoyl)-3-methylpiperazin-1-yl)-4-methyl-5-(4-(trifluoromethoxy)phenyl)nicotinonitrile]
< 0.5 µM | < 0.5 µM | < 0.5 µM | C=CC(=O)N1CCC=C(c2c(C3CC3)nc(N3CCN(C(=O)C[C@H]4CCO4)[C@H](C4CC4)C3)c(C#N)c2C)C1 [Compound 789, 5-(1-acryloyl-1,2,5,6-tetrahydropyridin-3-yl)-6-cyclopropyl-2-((R)-3-cyclopropyl-4-(2-((R)-oxetan-2-yl)acetyl)piperazin-1-yl)-4-methylnicotinonitrile]
< 0.5 µM | < 0.5 µM | < 0.5 µM | C=CC(=O)Nc1cccc(-c2cc(C#N)c(N3CCN(C(=O)C4CC4)[C@H](C4CC4)C3)nc2C2CC2)c1 [Compound 454, (R)—N-(3-(5-cyano-6-(4-(cyclopropanecarbonyl)-3-cyclopropylpiperazin-1-yl)-2-cyclopropylpyridin-3-yl)phenyl)acrylamide]
0.5 to 1 µM | 0.5 to 1 µM | 0.5 to 1 µM | C=C(F)C(=O)Nc1cccc(-c2cc(C#N)c(N3CCN(C(=O)CCOC)[C@H](C)C3)nc2C2CC2)c1 [Compound 431, (R)—N-(3-(5-cyano-2-cyclopropyl-6-(4-(3-methoxypropanoyl)-3-methylpiperazin-1-yl)pyridin-3-yl)phenyl)-2-fluoroacrylamide]
< 0.5 µM | < 0.5 µM | < 0.5 µM | C=Cc1cc(Nc2cc(C#N)c(N3CCN(C(=O)COC)[C@H](C4CC4)C3)nc2C2CC2)ccn1 [Compound 711, (R)-6-cyclopropyl-2-(3-cyclopropyl-4-(2-methoxyacetyl)piperazin-1-yl)-5-((2-vinylpyridin-4-yl)amino)nicotinonitrile]
< 0.5 µM | < 0.5 µM | < 0.5 µM | C=Cc1ncc2c(-c3cc(C#N)c(N4CCN(C(=O)CCOC)[C@H](C5CC5)C4)nc3C3CC3)cccc2n1 [Compound 635, (R)-6-cyclopropyl-2-(3-cyclopropyl-4-(3-methoxypropanoyl)piperazin-1-yl)-5-(2-vinylquinazolin-5-yl)nicotinonitrile]
< 0.5 µM | < 0.5 µM | < 0.5 µM | C=Cc1cc(Nc2cc(C#N)c(N3CCN(C(=O)CCO)[C@H](C)C3)nc2C2CC2)ccn1 [Compound 581, (R)-6-cyclopropyl-2-(4-(3-hydroxypropanoyl)-3-methylpiperazin-1-yl)-5-((2-vinylpyridin-4-yl)amino)nicotinonitrile]
< 0.5 µM | < 0.5 µM | < 0.5 µM | N#Cc1cc(-c2cccc3c(O)nccc23)c(C2CC2)nc1N1CCN(C(=O)CC(F)(F)F)[C@H](C2CC2)C1 [Compound 547, (R)-6-cyclopropyl-2-(3-cyclopropyl-4-(3,3,3-trifluoropropanoyl)piperazin-1-yl)-5-(1-hydroxyisoquinolin-5-yl)nicotinonitrile]
< 0.5 µM | 1 to 10 µM | < 0.5 µM | C=CS(=O)(=O)N(C)c1cccc(-c2cc(C#N)c(N3CCN(C(=O)CCOC)[C@H](C)C3)nc2C2CC2)c1 [Compound 446]
< 0.5 µM | < 0.5 µM | < 0.5 µM | C=Cc1ccc2ccc(-c3cc(C#N)c(N4CCN(C(=O)CCO)[C@H](C5CC5)C4)nc3C3CC3)cc2n1 [Compound 720, (R)-6-cyclopropyl-2-(3-cyclopropyl-4-(3-hydroxypropanoyl)piperazin-1-yl)-5-(2-vinylquinolin-7-yl) nicotinonitrile]
